Results taken from patent publication US8624034B2, “Fluoro-pyridinone derivatives useful as antibacterial agents” (Pfizer Inc., priority 2011, dated 2014).
Converted amounts (≈) assume the structure as drawn.

Experiments:
[1] = target: T1, Pseudomonas aeruginosa LpxC enzyme (Pseudomonas aeruginosa, UniProt P47205); assay: IC50 assay, LpxC enzyme from P. aeruginosa (PA LpxC enzyme IC50); type: biochemical; conditions: Table 2; LpxC enzyme 0.1 nM, 25° C., 1 hour; read-out: PA:IC50
T1 construct: made in house; host or cells: E. coli
T1 sequence (P47205 1-303): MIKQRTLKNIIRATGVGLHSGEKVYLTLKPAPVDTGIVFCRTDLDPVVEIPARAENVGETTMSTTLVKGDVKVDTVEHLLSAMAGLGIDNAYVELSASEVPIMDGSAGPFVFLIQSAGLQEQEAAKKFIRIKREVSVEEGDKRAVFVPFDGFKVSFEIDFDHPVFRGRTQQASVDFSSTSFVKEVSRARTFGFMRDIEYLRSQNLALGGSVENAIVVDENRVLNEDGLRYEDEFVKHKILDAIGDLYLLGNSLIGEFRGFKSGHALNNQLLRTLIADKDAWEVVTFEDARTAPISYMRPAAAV
In short: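 The LpxC reaction ran 1 hour and was stopped with HCl. Substrate-to-product conversion was measured by RapidFire mass spectrometry, and IC50 values were calculated from percent conversion relative to a no-enzyme control.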

[2] = test system: Escherichia coli EC-1: VOGEL, mouse virulent; assay: MIC determination, EC-1; type: cell-based; conditions: Escherichia coli, read-out: EC-1 (MIC), Table 2, lower of duplicate values
In short: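 MIC against mouse-virulent E. coli EC-1 (VOGEL) was determined by CLSI M7-A8 broth dilution with 2-fold drug increments and overnight incubation. The MIC is the lowest concentration with no visible growth versus drug-free control. Tests were run in duplicate and the lower value reported if within 2-fold, with QC organisms and reference drugs in each run.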

[3] = test system: Acinetobacter baumannii/haemolyticus, multidrug-resistant clinical isolate (AB-3167); assay: MIC determination, AB-3167; type: cell-based; conditions: Table 2, lower of duplicate values
In short: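 Broth dilution MIC per CLSI M7-A8, 2-fold drug series, overnight incubation, lowest concentration visibly inhibiting growth against drug-free control. Run in duplicate, lower value reported; duplicates differing >2-fold repeated; QC strains and reference compounds required in range.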

[4] = test system: Pseudomonas aeruginosa UI-18: wild-type (PA-7); assay: MIC determination, PA-7; type: cell-based; conditions: Table 2, lower of duplicate values
In short: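 P. aeruginosa UI-18 (wild-type) tested by CLSI broth dilution (M7-A8), 2-fold compound series incubated overnight. MIC read visually as lowest concentration preventing growth versus drug-free control; duplicates within 2-fold, lower value reported, with QC organisms and reference compounds in range.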

| Compound | IC50 [1] [nM] | MIC [2] [µg/mL] | MIC [3] [µg/mL] | MIC [4] [µg/mL] |
| --- | --- | --- | --- | --- |
| C[C@@](CCn1cc(F)c(-c2ccc(OC3CC3)cc2)cc1=O)(C(=O)NO)S(C)(=O)=O [Example 46, (2R)-4-{4-[4-(Cyclopropyloxy)phenyl]-5-fluoro-2-oxopyridin-1(2H)-yl}-N-hydroxy-2-methyl-2-(methylsulfonyl)butanamide] | 0.229 | 0.125 (≈ 0.285 µM) | > 64 | 0.5 (≈ 1.14 µM) |
| C[C@@](CCn1cc(F)c(C#Cc2ccccc2)cc1=O)(C(=O)NO)S(C)(=O)=O [Example 48, (2R)-4-[5-Fluoro-2-oxo-4-(phenylethynyl)pyridin-1(2H)-yl]-N-hydroxy-2-methyl-2-(methylsulfonyl)butanamide] | 0.555 | 0.06 (≈ 0.148 µM) | > 64 | 0.5 (≈ 1.23 µM) |
| C[C@@](CCn1cc(F)c(-c2cccc(Oc3nccs3)c2)cc1=O)(C(=O)NO)S(C)(=O)=O [Example 49, (2R)-4-{5-Fluoro-2-oxo-4-[3-(1,3-thiazol-2-yloxy)phenyl]pyridin-1(2H)-yl}-N-hydroxy-2-methyl-2-(methylsulfonyl)butanamide] | 0.758 | 0.25 (≈ 0.519 µM) | > 64 | 2 (≈ 4.15 µM) |
